Three compounds from publication PMC9921896 (Molecules, 2023) can be followed below.

Each structure is given as a SMILES string.

The target in one series is T1, CYP2B6 (Homo sapiens, UniProt P20813).
T1 construct: Using HLM as the enzyme source; from tissue; host or cells: human liver microsomes
T1 sequence (P20813 1-491): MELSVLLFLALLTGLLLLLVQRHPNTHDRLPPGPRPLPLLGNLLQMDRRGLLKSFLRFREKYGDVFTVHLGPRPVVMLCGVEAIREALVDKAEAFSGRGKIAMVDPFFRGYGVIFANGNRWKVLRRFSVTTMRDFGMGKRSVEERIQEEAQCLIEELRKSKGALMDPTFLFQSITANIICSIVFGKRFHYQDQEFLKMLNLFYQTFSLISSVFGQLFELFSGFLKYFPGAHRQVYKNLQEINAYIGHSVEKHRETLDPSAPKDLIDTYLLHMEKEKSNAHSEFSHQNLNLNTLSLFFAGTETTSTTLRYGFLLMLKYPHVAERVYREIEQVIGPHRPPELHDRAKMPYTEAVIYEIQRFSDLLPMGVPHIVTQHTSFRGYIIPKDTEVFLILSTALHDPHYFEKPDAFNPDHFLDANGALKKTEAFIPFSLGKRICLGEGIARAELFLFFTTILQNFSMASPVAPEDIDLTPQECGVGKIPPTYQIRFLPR
As to the kind of experiment: Single concentration Kobs assay (time-dependent inhibition) in HLM. The class given is biochemical. The conditions noted are these: human liver microsomes, significant if >50%, read-out: 2B6 R_Inh% (reversible inhibition). Background: Liver microsomes are a subcellular fraction often used to study metabolism.

Series [1] is described as follows: Substrate depletion assay in human liver microsomes (HLM). The class given is in vitro ADME. As to conditions: pooled human liver microsomes, pH 7.4, test conc. 1.0E-07 M (Table S4). As for the experimental part:
Microsomal stability was determined for the TbB ligands by monitoring the presence of compound after incubation in CPHH and HLM, as shown in Figure 7 and Figure S18 of the Supporting Information. […] Such an observation with NCEs is common because, with HLM, NADPH is used as a cofactor, thereby focusing mainly on phase 1 oxidation pathways such as P450 metabolism. Although additional enzymes, such as UDP-glucuronosyltransferase (UGTs), are present in HLM, the lack of the associated necessary cofactors prevents them from being functionally active (e.g., uridine diphosphate glucuronic acid (UDPGA)). In contrast, all the three TbB ligands metabolized in cryopreserved hepatocytes (Figure 7). […] The reason could be that hepatocytes have all the necessary enzymes and cofactors for the metabolic processes. Since they contain the complete set of oxidative/reductive, hydrolytic, and conjugative drug metabolizing enzymes found in the liver, they are regarded as the gold standard. Therefore, they are preferred in vitro options for expressing metabolic stability as substrate depletion, total metabolic clearance, and T 1/2 [29].
From the plot shown in Figure S18 of the Supporting Information, it can be inferred that the TbB ligands undergo slow biotransformation in HLM. Such high metabolic stability may result in drug interactions leading to toxicity of the parent compound. On the contrary, TbB ligands are undergoing rapid biotransformation in CPHH (Figure 7), and this may lead to generation of metabolites that are either toxic, active, or nonactive. Metabolic stability is typically expressed by in vitro half-life T 1/2 and intrinsic clearance (CLint) terms. Intrinsic clearance (CLint) is measured using the substrate depletion method. It describes the maximum liver (microsomal proteins or hepatocytes) activity towards a compound not affected by other physiological factors such as hepatic blood flow and drug binding within the blood matrix. T 1/2 is used to express the time for the 50% disappearance of the parent compound. A possible explanation for the difference in metabolic stability might be that the TbB ligands bind to microsomes during incubation. This can result in decreased free TbB ligand levels available to interact with metabolizing enzymes, reducing apparent intrinsic clearance values.
By preincubating a test substance for 5 minutes in phosphate buffer (pH 7.4) at 37 °C in shaking water bath, the stability of the test substance was examined in pooled HLM. After NADPH-generating systems addition, the reaction gets initiated and post incubation for 0, 15, 30, 45, and 60 min, the reaction is terminated with addition of acetonitrile/methanol to the incubation mixture. Supernatant obtained after mixing and centrifuging the sample is analyzed by HPLC-MS/MS. Microsomal protein for final use is at 0.1 mg/mL concentration. Four compounds, namely, propranolol and imipramine, known to be relatively stable, and verapamil and terfenadine, known as readily metabolizing in HLM, were included in each assay. Post HPLC-MS/MS of the samples, data are analyzed by considering test compounds peak area at each time point to time zero. Assuming the reaction to follow first-order kinetics, the slope of the initial linear range of the logarithmic curve of remaining compound (%) vs. time is considered to calculate the half-life. Additionally, the half-life is utilized to calculate the intrinsic clearance (CLint) as shown in the following equation. CLint(μL/min/mgprotein)=0.693/T1/2×proteinconc.

As to `COc1cc(-c2nnn(-c3cc(OC)c(O)c(OC)c3)n2)cc(OC)c1O` [223-2], the inhibition (commonly how much of the control response was suppressed) at 30 min on CYP2B6 is less than 50%. In series [1], the half-life (usually how long it takes for the measured level to halve) at 100 nM is 13.5 h and the microsomal CLint (in general, the rate of metabolic loss divided by the concentration) at 100 nM was less than 116 µL/min/mg.

Take `Cc1cc(-c2nnn(-c3cc(C)c(O)c(C)c3)n2)cc(C)c1O` [223-3]: the inhibition at 30 min at CYP2B6 was less than 50%. In series [1], this compound came in with a half-life at 100 nM of 1.25 h and a microsomal CLint at 100 nM of less than 116 µL/min/mg.

For `Oc1ccc(-c2nnn(-c3ccc(O)cc3)n2)cc1` [223-10], at CYP2B6, the inhibition at 30 min is less than 50%. In series [1], this compound returned a half-life at 100 nM of 3 h and a microsomal CLint at 100 nM of less than 116 µL/min/mg.
